For 18 compounds, IC50 and Ki results are on record in ChEMBL document CHEMBL1909046, “DrugMatrix in vitro pharmacology data”.

pIC50: −log10 of the molar value.

Assay [1] concerns the target Sodium-dependent dopamine transporter (Homo sapiens, UniProt Q01959). The experiment in a line: DRUGMATRIX: Dopamine Transporter radioligand binding (ligand: [125I] RTI-55). It is filed as cell membranes, CHO-K1, Membrane. The settings on record: cho-k1; Not Active = under 50% inhibition at 10 µM.
A short description of assay [2]: DRUGMATRIX: Glutamate, Kainate radioligand binding (ligand: [3H] Kainic acid). It is filed as cell membranes, Rattus norvegicus, Wistar, Brain, Membrane. The settings on record: Not Active = under 50% inhibition at 10 µM.
In assay [3] the target is T1, Polyunsaturated fatty acid lipoxygenase ALOX15 (Oryctolagus cuniculus, UniProt P12530).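 Also: inhibition of 15-lipoxygenase enzyme activity measured with linoleic acid as the substrate; in other assays of this panel Not Active means under 50% inhibition at 10 µM.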
T1 sequence (P12530 whole entry): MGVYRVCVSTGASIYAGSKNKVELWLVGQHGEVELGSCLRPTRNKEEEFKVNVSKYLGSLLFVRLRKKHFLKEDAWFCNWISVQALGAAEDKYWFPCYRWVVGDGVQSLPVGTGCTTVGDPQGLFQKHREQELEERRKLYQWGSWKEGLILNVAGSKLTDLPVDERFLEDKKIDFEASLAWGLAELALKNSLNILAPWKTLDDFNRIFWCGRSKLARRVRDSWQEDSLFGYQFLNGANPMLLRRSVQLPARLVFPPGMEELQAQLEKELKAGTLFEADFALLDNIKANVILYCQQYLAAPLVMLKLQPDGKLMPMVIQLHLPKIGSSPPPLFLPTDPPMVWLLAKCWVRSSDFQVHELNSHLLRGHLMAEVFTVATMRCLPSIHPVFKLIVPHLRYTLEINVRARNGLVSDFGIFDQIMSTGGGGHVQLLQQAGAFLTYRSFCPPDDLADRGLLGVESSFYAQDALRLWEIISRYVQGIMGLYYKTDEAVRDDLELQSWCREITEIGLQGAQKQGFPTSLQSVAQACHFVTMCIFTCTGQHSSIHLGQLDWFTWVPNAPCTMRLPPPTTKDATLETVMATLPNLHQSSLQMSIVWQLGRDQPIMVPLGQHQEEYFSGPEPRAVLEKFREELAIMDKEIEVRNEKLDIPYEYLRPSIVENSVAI
Put plainly: biochemical. It is filed as tissue-based, Reticulocytes. To be noted: for pIC50: read-out: IC50.

Assay [4] has as its target T2, Muscarinic acetylcholine receptor M4 (Homo sapiens, UniProt P08173). Also: in other assays of this panel Not Active means under 50% inhibition at 10 µM.
T2 sequence (P08173 whole entry): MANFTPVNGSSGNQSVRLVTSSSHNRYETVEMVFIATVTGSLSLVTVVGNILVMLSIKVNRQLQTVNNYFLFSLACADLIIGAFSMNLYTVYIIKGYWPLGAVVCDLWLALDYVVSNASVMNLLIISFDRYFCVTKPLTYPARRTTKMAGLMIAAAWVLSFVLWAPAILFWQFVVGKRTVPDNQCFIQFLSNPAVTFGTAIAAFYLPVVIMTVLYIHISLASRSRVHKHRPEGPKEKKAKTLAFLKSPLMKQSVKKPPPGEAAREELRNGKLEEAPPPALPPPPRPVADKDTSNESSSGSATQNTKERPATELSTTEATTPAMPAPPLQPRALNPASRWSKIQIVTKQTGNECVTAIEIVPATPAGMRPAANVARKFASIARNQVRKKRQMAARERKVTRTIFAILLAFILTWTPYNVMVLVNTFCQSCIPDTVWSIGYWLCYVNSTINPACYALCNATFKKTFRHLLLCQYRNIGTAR
It is filed as cell membranes, CHO-K1, Membrane. To be noted: cho-k1.

The target of another assay is T3, Interstitial collagenase (Homo sapiens, UniProt P03956).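 Also: MMP-1 enzyme inhibition assay using a peptide substrate; in other assays of this panel Not Active means under 50% inhibition at 10 µM.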
T3 sequence (P03956 whole entry): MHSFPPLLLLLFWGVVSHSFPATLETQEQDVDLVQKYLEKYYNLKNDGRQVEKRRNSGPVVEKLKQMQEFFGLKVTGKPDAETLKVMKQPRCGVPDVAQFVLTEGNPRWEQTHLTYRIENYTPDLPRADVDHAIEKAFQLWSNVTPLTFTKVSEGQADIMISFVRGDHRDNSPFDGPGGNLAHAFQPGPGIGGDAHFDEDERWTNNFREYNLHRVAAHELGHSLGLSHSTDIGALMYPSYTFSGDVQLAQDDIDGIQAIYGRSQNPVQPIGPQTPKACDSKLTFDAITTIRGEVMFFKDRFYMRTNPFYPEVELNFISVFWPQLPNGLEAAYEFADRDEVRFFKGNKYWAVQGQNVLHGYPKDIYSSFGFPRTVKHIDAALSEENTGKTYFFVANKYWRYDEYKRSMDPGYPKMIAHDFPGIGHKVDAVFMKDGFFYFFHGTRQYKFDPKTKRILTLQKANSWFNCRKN
The experiment in a line: biochemical. It is filed as tissue-based, Rheumatoid synovial fibroblasts.

The target in another assay is T4, Adenosine receptor A1 (Homo sapiens, UniProt P30542).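 Also: radioligand binding assay at the adenosine A1 receptor, with DPCPX serving as the labelled ligand; in other assays of this panel Not Active means under 50% inhibition at 10 µM.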
T4 sequence (P30542 whole entry): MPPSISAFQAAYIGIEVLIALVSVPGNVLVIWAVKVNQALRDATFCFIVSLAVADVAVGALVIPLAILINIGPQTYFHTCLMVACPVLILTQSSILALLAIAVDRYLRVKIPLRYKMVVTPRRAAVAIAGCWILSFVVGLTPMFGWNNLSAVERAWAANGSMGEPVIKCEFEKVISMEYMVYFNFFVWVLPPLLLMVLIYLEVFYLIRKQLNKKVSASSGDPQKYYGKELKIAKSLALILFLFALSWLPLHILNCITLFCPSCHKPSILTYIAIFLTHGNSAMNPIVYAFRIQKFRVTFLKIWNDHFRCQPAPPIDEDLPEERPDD
It is filed as cell membranes, CHO, Membrane. To be noted: cho.

Sodium-dependent dopamine transporter, sequence (Q01959 whole entry): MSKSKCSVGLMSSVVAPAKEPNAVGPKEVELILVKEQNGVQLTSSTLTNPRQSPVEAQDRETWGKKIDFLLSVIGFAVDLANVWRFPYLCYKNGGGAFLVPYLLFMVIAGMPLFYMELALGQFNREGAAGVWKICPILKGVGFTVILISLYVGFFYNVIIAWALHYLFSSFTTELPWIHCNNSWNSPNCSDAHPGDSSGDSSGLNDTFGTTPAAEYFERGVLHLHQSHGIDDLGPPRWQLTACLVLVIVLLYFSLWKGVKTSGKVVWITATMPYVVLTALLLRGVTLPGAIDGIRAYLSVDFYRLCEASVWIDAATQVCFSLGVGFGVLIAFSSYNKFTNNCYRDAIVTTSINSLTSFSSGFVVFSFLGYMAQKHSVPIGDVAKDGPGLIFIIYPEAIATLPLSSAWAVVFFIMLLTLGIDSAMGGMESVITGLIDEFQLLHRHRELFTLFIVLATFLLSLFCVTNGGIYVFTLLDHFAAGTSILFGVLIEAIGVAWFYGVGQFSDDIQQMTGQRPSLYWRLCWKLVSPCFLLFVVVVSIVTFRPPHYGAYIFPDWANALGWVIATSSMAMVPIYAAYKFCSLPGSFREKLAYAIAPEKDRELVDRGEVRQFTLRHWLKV

For the compound `Cc1ccc(S(=O)(=O)NC(=O)NN2CCCCCC2)cc1` [TOLAZAMIDE], the IC50 entry (in assay [1]; in assay [2]; in assay [4]; on Interstitial collagenase; at Adenosine receptor A1) was “Not Active” throughout. For the same compound, the Ki entry in assay [2] is “Not Active”. The pIC50 in assay [3] is 5.29.
Take `CCC(C)(C)C(=O)O[C@H]1C[C@@H](C)C=C2C=C[C@H](C)[C@H](CC[C@@H]3C[C@@H](O)CC(=O)O3)[C@H]21` [SIMVASTATIN]: the IC50 result (in assay [1]; in assay [2]; in assay [3] (reticulocytes); in assay [4]; against Interstitial collagenase; against Adenosine receptor A1) was “Not Active” each time. Besides, the Ki result in assay [2] is on record as “Not Active”.
For LEAD(IV) ACETATE, the IC50 result (in assay [1]; in assay [2]; in assay [3] (reticulocytes); in assay [4]; against Interstitial collagenase; on Adenosine receptor A1) was “Not Active” throughout. Also, the Ki entry (in assay [1]; in assay [2]; in assay [3] (reticulocytes); in assay [4]; at Interstitial collagenase; at Adenosine receptor A1) was “Not Active” in each case.
Consider `CCN1CCCC1CNC(=O)c1cc(S(N)(=O)=O)ccc1OC` (stereo unspecified) [SULPIRIDE], for which the IC50 result (in assay [1]; in assay [2]; in assay [3] (reticulocytes); in assay [4]; against Interstitial collagenase; on Adenosine receptor A1) was “Not Active” throughout. In assay [2], the Ki result was “Not Active”.
Take `CC[C@H](C)C(=O)O[C@H]1CCC=C2C=C[C@H](C)[C@H](CC[C@@H]3C[C@@H](O)CC(=O)O3)[C@H]21` [MEVASTATIN]: the IC50 entry (in assay [1]; in assay [2]; in assay [3] (reticulocytes); in assay [4]; against Interstitial collagenase; at Adenosine receptor A1) was “Not Active” throughout. The Ki entry in assay [2] is on record as “Not Active”.
With `Oc1ccc(/C=C/c2cc(O)cc(O)c2)cc1` [RESVERATROL], the IC50 result (in assay [1]; in assay [2]; in assay [3] (reticulocytes); in assay [4]; against Interstitial collagenase; on Adenosine receptor A1) was “Not Active” each time. For the same compound, the Ki result in assay [2] is “Not Active”.
For the compound `CC1=C(/C=C/C(C)=C/C=C/C(C)=C/C(=O)O)C(C)(C)CCC1` [TRETINOIN], the IC50 entry (in assay [1]; in assay [2]; in assay [3] (reticulocytes); in assay [4]; against Interstitial collagenase; on Adenosine receptor A1) was “Not Active” each time. Besides, the Ki result in assay [2] is “Not Active”.
Turning to `CC[C@@]1(O)C(=O)OCc2c1cc1n(c2=O)Cc2cc3c(CN(C)C)c(O)ccc3nc2-1` [TOPOTECAN], the IC50 result (in assay [1]; in assay [2]; in assay [3] (reticulocytes); in assay [4]; against Interstitial collagenase; on Adenosine receptor A1) was “Not Active” each time. Also, the Ki result in assay [2] is “Not Active”.
For `O=C(OC[C@H]1O[C@@H](OC(=O)c2cc(O)c(O)c(OC(=O)c3cc(O)c(O)c(O)c3)c2)[C@H](OC(=O)c2cc(O)c(O)c(OC(=O)c3cc(O)c(O)c(O)c3)c2)[C@@H](OC(=O)c2cc(O)c(O)c(OC(=O)c3cc(O)c(O)c(O)c3)c2)[C@@H]1OC(=O)c1cc(O)c(O)c(OC(=O)c2cc(O)c(O)c(O)c2)c1)c1cc(O)c(O)c(OC(=O)c2cc(O)c(O)c(O)c2)c1` [TANNIC ACID], the IC50 result (in assay [1]; in assay [2]; in assay [4]; at Interstitial collagenase; at Adenosine receptor A1) was “Not Active” in each case. Besides, the Ki result in assay [2] is listed as “Not Active”. The pIC50 in assay [3] was 6.57.
Take `CC(Cl)(Cl)Cl` [TRICHLOROETHANE]: the IC50 entry (in assay [1]; in assay [2]; in assay [3] (reticulocytes); in assay [4]; against Interstitial collagenase; on Adenosine receptor A1) was “Not Active” throughout. For the same compound, the Ki result in assay [2] is “Not Active”.
Turning to `C=CCc1ccc2c(c1)OCO2` [SAFROLE], the IC50 result (in assay [1]; in assay [2]; in assay [3] (reticulocytes); in assay [4]; on Interstitial collagenase; against Adenosine receptor A1) was “Not Active” throughout. Also, the Ki entry in assay [2] is “Not Active”.
In the case of `O=C1CC[C@@]2(O)[C@H]3Cc4ccc(O)c5c4[C@@]2(CCN3CC2CC2)[C@H]1O5` [NALTREXONE], the IC50 entry (in assay [1]; in assay [2]; in assay [3] (reticulocytes); in assay [4]; on Interstitial collagenase; at Adenosine receptor A1) was “Not Active” in each case. Besides, in assay [2], the Ki entry is on record as “Not Active”.
For `CN1C(=O)OC(C)(C)C1=O` [TRIMETHADIONE], the IC50 result (in assay [1]; in assay [2]; in assay [3] (reticulocytes); in assay [4]; at Interstitial collagenase; at Adenosine receptor A1) was “Not Active” throughout. Moreover, the Ki entry in assay [2] was “Not Active”.
As to `CC(O)C(=O)O` (stereo unspecified) [LACTIC ACID], the IC50 result (in assay [1]; in assay [2]; in assay [3] (reticulocytes); in assay [4]; against Interstitial collagenase; against Adenosine receptor A1) was “Not Active” in each case. The Ki entry in assay [2] is on record as “Not Active”.
On to `CS(=O)(=O)c1ccc(C2=C(c3ccccc3)C(=O)OC2)cc1` [ROFECOXIB], for which the IC50 entry (in assay [1]; in assay [2]; in assay [3] (reticulocytes); in assay [4]; on Interstitial collagenase; against Adenosine receptor A1) was “Not Active” in each case. Moreover, the Ki entry in assay [2] is on record as “Not Active”.
In the case of `Cc1nnc(NS(=O)(=O)c2ccc(N)cc2)s1` [SULFAMETHIZOLE], the IC50 entry (in assay [1]; in assay [2]; in assay [3] (reticulocytes); in assay [4]; on Interstitial collagenase; at Adenosine receptor A1) was “Not Active” in each case. Also, the Ki result in assay [2] is given as “Not Active”.
Consider `CC(=O)O[C@]1(C(C)=O)CC[C@H]2[C@@H]3C[C@H](C)C4=CC(=O)CC[C@]4(C)[C@H]3CC[C@@]21C` [MEDROXYPROGESTERONE ACETATE], for which the IC50 entry (in assay [1]; in assay [2]; in assay [3] (reticulocytes); in assay [4]; at Interstitial collagenase; at Adenosine receptor A1) was “Not Active” each time. The Ki result in assay [2] is listed as “Not Active”.
Take `CC1(C)[C@H](C(=O)O)N2C(=O)C[C@H]2S1(=O)=O` [SULBACTAM]: the IC50 entry (in assay [1]; in assay [2]; in assay [3] (reticulocytes); in assay [4]; on Interstitial collagenase; against Adenosine receptor A1) was “Not Active” each time. In addition, in assay [2], the Ki result was “Not Active”.
